Data: the supplement of paper PMC13207355
Structures can show the parent of a compound that is named as a salt.

Assays:
Conditions in all cases: exposure time: 72 h
E34 [1] = patient-derived glioblastoma stem cells of proneural subtype; assay: phenotypic distance (Euclidean, principal components) from DMSO controls (arbitrary units); higher = stronger morphological change
E31 [2] = patient-derived glioblastoma stem cells of proneural subtype; assay: as above
E28 [3] = patient-derived glioblastoma stem cells of classical subtype; assay: as above
E21 [4] = patient-derived glioblastoma stem cells of mesenchymal subtype; assay: as above
E57 [5] = patient-derived glioblastoma stem cells of mesenchymal subtype; assay: as above
E13 [6] = patient-derived glioblastoma stem cells of classical subtype; assay: as above
FT3469 [7] = normal neural stem cell line; assay: as above
E34 [8] = assay: surviving fraction (nuclei count normalised to DMSO); higher = more cells surviving (less toxic)
E31 [9] = assay: as above
E28 [10] = assay: as above
E21 [11] = assay: as above
E57 [12] = assay: as above
E13 [13] = assay: as above
FT3469 [14] = assay: as above
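For phenotypic distance (Euclidean, principal components) from DMSO controls in this document: cell Painting imaging in 384-well plates, CellProfiler features reduced to at least 20 principal components, Euclidean distance versus same-plate DMSO vehicle wells (0.1% v/v), median over six images per well.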
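For surviving fraction (nuclei count normalised to DMSO) in this document: nuclei counted by high-content imaging of Hoechst-stained cells in laminin-coated 384-well plates, relative to 0.1% DMSO vehicle wells, with staurosporine as cell-death control.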

CCC[C@@H]1C[C@@H](C(=O)N[C@@H]([C@H]2O[C@H](SC)[C@H](O)[C@@H](O)[C@H]2O)[C@@H](C)O)N(C)C1 [Lincomycin hydrochloride]
Conditions | phenotypic distance | surviving fraction
E13 [6], 4.1 nM | 0.648 | –
E13 [6], 12.3 nM | 0.534 | –
E13 [6], 37 nM | 0.423 | –
E13 [6], 111.1 nM | 0.641 | –
E13 [6], 333.3 nM | 0.442 | –
E13 [6], 1000 nM | 0.768 | –
E13 [6], 3000 nM | 0.427 | –
E13 [13], 4.1 nM | – | 0.937
E13 [13], 12.3 nM | – | 0.912
E13 [13], 37 nM | – | 0.891
E13 [13], 111.1 nM | – | 0.967
E13 [13], 333.3 nM | – | 1.07
E13 [13], 1000 nM | – | 1.1
E13 [13], 3000 nM | – | 0.894
E21 [4], 4.1 nM | 0.423 | –
E21 [4], 12.3 nM | 0.813 | –
E21 [4], 37 nM | 0.629 | –
E21 [4], 111.1 nM | 0.635 | –
E21 [4], 333.3 nM | 0.696 | –
E21 [4], 1000 nM | 0.667 | –
E21 [4], 3000 nM | 0.478 | –
E21 [11], 4.1 nM | – | 0.94
E21 [11], 12.3 nM | – | 0.873
E21 [11], 37 nM | – | 0.963
E21 [11], 111.1 nM | – | 0.936
E21 [11], 333.3 nM | – | 0.972
E21 [11], 1000 nM | – | 0.984
E21 [11], 3000 nM | – | 0.94
E28 [3], 4.1 nM | 0.634 | –
E28 [3], 12.3 nM | 0.929 | –
E28 [3], 37 nM | 1.11 | –
E28 [3], 111.1 nM | 0.703 | –
E28 [3], 333.3 nM | 0.726 | –
E28 [3], 1000 nM | 0.598 | –
E28 [3], 3000 nM | 0.576 | –
E28 [10], 4.1 nM | – | 1.05
E28 [10], 12.3 nM | – | 1.04
E28 [10], 37 nM | – | 1.08
E28 [10], 111.1 nM | – | 0.956
E28 [10], 333.3 nM | – | 1.12
E28 [10], 1000 nM | – | 1.12
E28 [10], 3000 nM | – | 1.03
E31 [2], 4.1 nM | 0.488 | –
E31 [2], 12.3 nM | 0.574 | –
E31 [2], 37 nM | 0.621 | –
E31 [2], 111.1 nM | 0.44 | –
E31 [2], 333.3 nM | 0.659 | –
E31 [2], 1000 nM | 0.74 | –
E31 [2], 3000 nM | 0.788 | –
E31 [9], 4.1 nM | – | 1.03
E31 [9], 12.3 nM | – | 0.994
E31 [9], 37 nM | – | 1.03
E31 [9], 111.1 nM | – | 1.15
E31 [9], 333.3 nM | – | 1.1
E31 [9], 1000 nM | – | 1.21
E31 [9], 3000 nM | – | 0.936
E34 [1], 4.1 nM | 0.57 | –
E34 [1], 12.3 nM | 0.706 | –
E34 [1], 37 nM | 0.876 | –
E34 [1], 111.1 nM | 1.02 | –
E34 [1], 333.3 nM | 0.802 | –
E34 [1], 1000 nM | 0.879 | –
E34 [1], 3000 nM | 0.674 | –
E34 [8], 4.1 nM | – | 0.988
E34 [8], 12.3 nM | – | 0.937
E34 [8], 37 nM | – | 0.909
E34 [8], 111.1 nM | – | 1.09
E34 [8], 333.3 nM | – | 1.11
E34 [8], 1000 nM | – | 1.25
E34 [8], 3000 nM | – | 0.902
E57 [5], 4.1 nM | 0.854 | –
E57 [5], 12.3 nM | 1.06 | –
E57 [5], 37 nM | 0.755 | –
E57 [5], 111.1 nM | 0.617 | –
E57 [5], 333.3 nM | 0.478 | –
E57 [5], 1000 nM | 0.463 | –
E57 [5], 3000 nM | 0.394 | –
E57 [12], 4.1 nM | – | 1.09
E57 [12], 12.3 nM | – | 1.08
E57 [12], 37 nM | – | 0.957
E57 [12], 111.1 nM | – | 1.07
E57 [12], 333.3 nM | – | 0.959
E57 [12], 1000 nM | – | 0.997
E57 [12], 3000 nM | – | 0.976
FT3469 [7], 4.1 nM | 0.783 | –
FT3469 [7], 12.3 nM | 0.977 | –
FT3469 [7], 37 nM | 0.592 | –
FT3469 [7], 111.1 nM | 0.704 | –
FT3469 [7], 333.3 nM | 0.658 | –
FT3469 [7], 1000 nM | 1.03 | –
FT3469 [7], 3000 nM | 0.496 | –
FT3469 [14], 4.1 nM | – | 0.948
FT3469 [14], 12.3 nM | – | 0.951
FT3469 [14], 37 nM | – | 0.828
FT3469 [14], 111.1 nM | – | 1.15
FT3469 [14], 333.3 nM | – | 1.1
FT3469 [14], 1000 nM | – | 1.08
FT3469 [14], 3000 nM | – | 1.08

CNCCCC12CCC(c3ccccc31)c1ccccc12 [Maprotiline hydrochloride]
Conditions | phenotypic distance | surviving fraction
E13 [6], 4.1 nM | 0.553 | –
E13 [6], 12.3 nM | 0.296 | –
E13 [6], 37 nM | 0.356 | –
E13 [6], 111.1 nM | 0.55 | –
E13 [6], 333.3 nM | 0.608 | –
E13 [6], 1000 nM | 0.471 | –
E13 [6], 3000 nM | 0.392 | –
E13 [13], 4.1 nM | – | 0.984
E13 [13], 12.3 nM | – | 1.05
E13 [13], 37 nM | – | 0.987
E13 [13], 111.1 nM | – | 1.05
E13 [13], 333.3 nM | – | 1.1
E13 [13], 1000 nM | – | 1.05
E13 [13], 3000 nM | – | 0.911
E21 [4], 4.1 nM | 0.674 | –
E21 [4], 12.3 nM | 1.04 | –
E21 [4], 37 nM | 0.745 | –
E21 [4], 111.1 nM | 1.03 | –
E21 [4], 333.3 nM | 0.9 | –
E21 [4], 1000 nM | 0.798 | –
E21 [4], 3000 nM | 0.546 | –
E21 [11], 4.1 nM | – | 1.04
E21 [11], 12.3 nM | – | 0.944
E21 [11], 37 nM | – | 0.982
E21 [11], 111.1 nM | – | 1.06
E21 [11], 333.3 nM | – | 1.02
E21 [11], 1000 nM | – | 1.03
E21 [11], 3000 nM | – | 1.06
E28 [3], 4.1 nM | 0.756 | –
E28 [3], 12.3 nM | 0.57 | –
E28 [3], 37 nM | 0.744 | –
E28 [3], 111.1 nM | 0.651 | –
E28 [3], 333.3 nM | 0.753 | –
E28 [3], 1000 nM | 0.525 | –
E28 [3], 3000 nM | 0.615 | –
E28 [10], 4.1 nM | – | 1.23
E28 [10], 12.3 nM | – | 0.929
E28 [10], 37 nM | – | 0.979
E28 [10], 111.1 nM | – | 1.21
E28 [10], 333.3 nM | – | 1.13
E28 [10], 1000 nM | – | 0.951
E28 [10], 3000 nM | – | 0.979
E31 [2], 4.1 nM | 0.322 | –
E31 [2], 12.3 nM | 0.404 | –
E31 [2], 37 nM | 0.529 | –
E31 [2], 111.1 nM | 0.826 | –
E31 [2], 333.3 nM | 0.77 | –
E31 [2], 1000 nM | 0.546 | –
E31 [2], 3000 nM | 0.55 | –
E31 [9], 4.1 nM | – | 1.07
E31 [9], 12.3 nM | – | 1.06
E31 [9], 37 nM | – | 1.02
E31 [9], 111.1 nM | – | 0.859
E31 [9], 333.3 nM | – | 1.18
E31 [9], 1000 nM | – | 1.05
E31 [9], 3000 nM | – | 1.01
E34 [1], 4.1 nM | 0.824 | –
E34 [1], 12.3 nM | 0.524 | –
E34 [1], 37 nM | 0.568 | –
E34 [1], 111.1 nM | 1.03 | –
E34 [1], 333.3 nM | 0.644 | –
E34 [1], 1000 nM | 1.11 | –
E34 [1], 3000 nM | 0.788 | –
E34 [8], 4.1 nM | – | 1.04
E34 [8], 12.3 nM | – | 0.869
E34 [8], 37 nM | – | 0.875
E34 [8], 111.1 nM | – | 1.01
E34 [8], 333.3 nM | – | 1.02
E34 [8], 1000 nM | – | 0.997
E34 [8], 3000 nM | – | 1.07
E57 [5], 4.1 nM | 0.339 | –
E57 [5], 12.3 nM | 0.804 | –
E57 [5], 37 nM | 0.81 | –
E57 [5], 111.1 nM | 0.882 | –
E57 [5], 333.3 nM | 0.422 | –
E57 [5], 1000 nM | 0.498 | –
E57 [5], 3000 nM | 0.628 | –
E57 [12], 4.1 nM | – | 1.06
E57 [12], 12.3 nM | – | 1.12
E57 [12], 37 nM | – | 1.09
E57 [12], 111.1 nM | – | 1.1
E57 [12], 333.3 nM | – | 0.986
E57 [12], 1000 nM | – | 0.93
E57 [12], 3000 nM | – | 1.09
FT3469 [7], 4.1 nM | 0.707 | –
FT3469 [7], 12.3 nM | 0.982 | –
FT3469 [7], 37 nM | 0.677 | –
FT3469 [7], 111.1 nM | 1.1 | –
FT3469 [7], 333.3 nM | 0.895 | –
FT3469 [7], 1000 nM | 1.08 | –
FT3469 [7], 3000 nM | 0.56 | –
FT3469 [14], 4.1 nM | – | 1.09
FT3469 [14], 12.3 nM | – | 1.18
FT3469 [14], 37 nM | – | 1.3
FT3469 [14], 111.1 nM | – | 1.07
FT3469 [14], 333.3 nM | – | 0.901
FT3469 [14], 1000 nM | – | 1.16
FT3469 [14], 3000 nM | – | 0.869
